{"source": "patent US10736317B2", "about": "“Composition having sex pheromone activity on San Jose scale, and attractant, mating disruptant, attraction method and mating disruption method for San Jose scale” (SHIN-ETSU CHEMICAL CO., LTD., priority 2017, dated 2020)", "system": "SJS male adult insects", "test": "SJS attraction test (white adhesive trap, orchard)", "type": "in vivo, Quadraspidiotus perniciosus (San Jose scale)", "conditions": "conclusion from trap captures", "description": "<Evaluation of Sex Pheromone Activity (SJS Attraction Test)> A white adhesive trap was used for evaluation of the sex pheromone activity. […] An adhesive material was applied over the bottom plate, and the attractant, which is shown as “A” in FIG. 1, was placed directly on the adhesive surface. In other words, it is configured to capture only insects that have approached the attractant, whereby keeping unintentional admission of insects as low as possible. In a period of from Jun. 30 to Oct. 2, 2015, the traps, each having one of the attractants, were placed in an orchard where SJS had inhabited. The number of male adult insects captured in each trap was measured for every 7 days. At every measurement, the installation places of the respective traps were changed by rotation of 13 places in total, in order to minimize the effects of installation environment on the number of capture."}
{"smiles": "C=C(C)CCCC(C)CCOC(=O)CC", "note": "(stereo not shown) [3,7-dimethyl-7-octenyl propionate]", "values": [{"measurement": "sex pheromone activity on the SJS", "result": "has a sex pheromone activity on the SJS"}]}
